From EP2342182B1 (H. Lundbeck A/S, priority 2008, dated 2010)

How the values were obtained:
[1] = molecular target: T1, human NK3 receptor (Homo sapiens, UniProt P29371); assay: NK3 receptor binding assay (SPA-based competition binding with 125I-NKB); conditions: read-out: Affinity (Ki/nM); further: competition with app 0.02 nM 125I-NKB
T1 construct: expressed in transfected cells; membranes prepared from them
T1 sequence (P29371 1-465): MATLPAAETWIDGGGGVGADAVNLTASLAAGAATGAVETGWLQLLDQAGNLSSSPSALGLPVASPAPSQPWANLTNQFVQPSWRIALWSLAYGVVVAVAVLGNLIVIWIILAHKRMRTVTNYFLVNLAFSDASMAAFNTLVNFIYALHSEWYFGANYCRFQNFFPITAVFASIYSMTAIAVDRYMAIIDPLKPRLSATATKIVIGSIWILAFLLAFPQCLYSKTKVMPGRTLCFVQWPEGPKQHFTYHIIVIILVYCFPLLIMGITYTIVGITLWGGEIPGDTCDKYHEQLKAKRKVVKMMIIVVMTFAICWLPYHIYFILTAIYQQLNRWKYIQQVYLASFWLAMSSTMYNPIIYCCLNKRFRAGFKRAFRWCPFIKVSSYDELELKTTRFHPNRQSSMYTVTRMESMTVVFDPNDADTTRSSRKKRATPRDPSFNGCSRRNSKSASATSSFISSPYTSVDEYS
Protocol: Example 12 NK3 receptor binding assay
Membranepreparation: BHK cells stably expressing the human NK3 receptor were seeded in harvesting plates in Dulbeccos MEM containing GlutaMax (862 mg/l), 1mM sodium pyruvate, 10% fetal calf serum, 1% Pen/Strep, 1 mg/ml G418 and were grown at 34 °C in a humidified atmosphere containing 10% CO2. To increase receptor expression, 10 µM trichotatin A was added to the media 24 hours before harvest of the cells at a confluency of app 90%. Prior to the harvesting, the cells were washed twice with PBS without Mg^2+ og Ca^2+ and subsequently scrapped of in 10 ml PBS pr harvesting plate. The cells suspension were centrifuged at 1500xG in three minutes before resuspension in 15 mM Tris-HCl pH 7,5 buffer containing 2 mM MgCl2; 0,3 mM EDTA and 1 mM EGTA (buffer A). The cell suspention was homogenised and subsequently centrifuged at 40000xG in 30 minutes. The membrane-pellet was resuspended in buffer A containing 250 mM sucrose, alliquoted and stored at ― 80 °C.
Affinity assay description: The assay was performed as a SPA-based competition-binding assay in a 50 mM Tris pH 7.4 assay buffer containing 120 mM NaCl, 3 mM MnCl2, 40 µg/ml bacitracin, 2 µg/ml Chymostatin, 1 µg/ml Phosphoramidon and 4 µg/ml Leupeptin. […] The assay plate was subsequently under agitation incubated for 90 min at RT. The plate was centrifugated 10 minutes at 500xG and counted in a topcounter 5 minuttes pr well.
The total binding, which comprised less than 5 % of added radioligand, was defined using assay buffer whereas the non-specific binding was defined in the presence of 1 µM osanetant. The non-specific binding constituted app 5 % of the total binding.

[2] = molecular target: T1, human NK3 receptor; assay: NK3 receptor efficacy and potency assay (FLIPR Calcium 4); assay type: cell-based; conditions: read-out: Potency (cIC50/nM)
Protocol: Example 13 NK3 receptor efficacy and potency assay
BHK cells stably expressing the human NK3 receptor were seeded in 100 µl media in black walled clear-base 96-wells plates (Costar) aiming at a confluency of 95-100% at the day of assay. The assay was performed according to the FLIPR Calcium 4 Assay kit (Molecular Devices). At the day of the assay, the media was removed and the cells were washed once with the HBSS buffer (Hanks BSS buffer, pH 7,4 containing 20 mM Hepes) before 100 µl of a solution of the calcium assay reagent dissolved in the HBSS buffer containing 2,5 mM probinicid was added to the cells. The plates were incubated for 60 min at 34°C, 10% CO2 before use in the FLIPR for examination of fluorescence.
For efficacy and potency evaluation of compounds, these were diluted in HBSS buffer prior to test. For test of agonist activity, 25 µl of the diluted compound solution was added and the plate was analyzed for 5 minutes in the FLIPR. For test of antagonist activity, the plate was incubated for another 45 minutes before addition of 25 µl of the EC85 concentration ofNKB (app. 4 nM) as described above. The plates were subsequently analyzed for 5 minutes before the assay was terminated. The maximal increase in fluorescence over background following each ligand addition was determined.

| Structure (SMILES) | Ki [1] [nM] | IC50 [2] [nM] |
| --- | --- | --- |
| CC[C@H](NC(=O)c1c(C)n(C2CCCC2)c(=O)c2ccccc12)c1ccccc1 [Example 1a, 2-Cyclopentyl-3-methyl-1-oxo-1,2-dihydro-isoquinoline-4-carboxylic acid ((S)-1-phenylpropyl)-amide] | 310 | 570 |
| CC[C@H](NC(=O)c1c(C)n(CCSC)c(=O)c2ccccc12)c1ccccc1 [Example 1q, 3-Methyl-2-(2-methylsulfanyl-ethyl)-1-oxo-1,2-dihydro-isoquinoline-4-carboxylic acid ((S)-1-phenyl-propyl)-amide] | 200 | 440 |
| CC[C@H](NC(=O)c1c(C)n(NCC(C)C)c(=O)c2ccccc12)c1ccccc1 [Example 2d, 2-Isobutylamino-3-methyl-1-oxo-1,2-dihydro-isoquinoline-4-carboxylic acid ((S)-1-phenyl-propyl)-amide] | 46 | 230 |
| CC[C@H](NC(=O)c1c(C)n(NCC(C)(C)C)c(=O)c2ccccc12)c1ccccc1 [Example 2e, 2-(2,2-Dimethyl-propylamino)-3-methyl-1-oxo-1,2-dihydro-isoquinoline-4-carboxylic acid ((S)-1-phenyl-propyl)-amide] | 180 | 580 |
| Cc1c(C(=O)N[C@H](c2ccccc2)C2CC2)c2cccc(F)c2c(=O)n1NCC(C)C [Example 2j, 8-Fluoro-2-isobutylamino-3-methyl-1-oxo-1,2-dihydro-isoquinoline-4-carboxylic acid ((S)-cyclopropyl-phenyl-methyl)-amide] | 23 |  |
| CCNn1c(C)c(C(=O)N[C@H](c2cccc(F)c2)C2CC2)c2cccc(F)c2c1=O [Example 2p, 2-Ethylamino-8-fluoro-3-methyl-1-oxo-1,2-dihydro-isoquinoline-4-carboxylic acid [(S)-cyclopropyl-(3-fluoro-phenyl)-methyl]-amide] | 12 | 27 |
| CCCNn1c(C)c(C(=O)N[C@H](c2cccc(F)c2)C2CC2)c2cccc(F)c2c1=O [Example 2q, 8-Fluoro-3-methyl-1-oxo-2-propylamino-1,2-dihydro-isoquinoline-4-carboxylic acid [(S)-cyclopropyl-(3-fluoro-phenyl)-methyl]-amide] | 7.4 |  |
| CCNn1c(CN2CCCC2=O)c(C(=O)N[C@H](c2cccc(F)c2)C2CC2)c2cccc(F)c2c1=O [Example 2r, 2-Ethylamino-8-fluoro-1-oxo-3-(2-oxo-pyrrolidin-1-ylmethyl)-1,2-dihydro-isoquinoline-4-carboxylic acid [(S)-cyclopropyl-(3-fluoro-phenyl)-methyl]-amide] | 6.8 |  |
| COCCn1c(C)c(C(=O)N[C@H](c2cccc(F)c2)C2CC2)c2cccc(F)c2c1=O [Example 4f, 8-Fluoro-2-(2-methoxy-ethyl)-3-methyl-1-oxo-1,2-dihydro-isoquinoline-4-carboxylic acid [(S)-cyclopropyl-(3-fluoro-phenyl)-methyl]-amide] | 76 | 230 |
| O=C(N[C@H](c1cccc(F)c1)C1CC1)c1c(CN2CCCC2=O)n(CCC(F)(F)F)c(=O)c2c(F)cccc12 [Example 4l, 8-Fluoro-1-oxo-3-(2-oxo-pyrrolidin-1-ylmethyl)-2-(3,3,3-trifluoro-propyl)-1,2-dihydro-isoquinoline-4-carboxylic acid [(S)-cyclopropyl-(3-fluoro-phenyl)-methyl]-amide] | 9.3 | 10 |
| Cc1c(C(=O)NC(c2cccc(F)c2)C2CCC2)c2cccc(F)c2c(=O)n1C1CCOC1 [Example 4r, 8-Fluoro-3-methyl-1-oxo-2-(S)-tetrahydro-furan-3-yl-1,2-dihydro-isoquinoline-4-carboxylic acid [(S)-cyclobutyl-(3-fluoro-phenyl)-methyl]-amide] |  | 390 |
| Cc1c(C(=O)N[C@H](c2cccc(F)c2)C2CC2)c2cccc(F)c2c(=O)n1[C@@H]1CCNC1 [Example 5g, 8-Fluoro-3-methyl-1-oxo-2-(R)-1-pyrrolidin-3-yl-1,2-dihydro-isoquinoline-4-carboxylic acid [(S)-cyclopropyl-(3-fluoro-phenyl)-methyl]-amide] |  | 910 |
